In patent publication US20250179052A1, “PYRIMIDINYL-OXY-QUINOLINE BASED HERBICIDAL COMPOUNDS” (SYNGENTA CROP PROTECTION AG, priority 2022, published 2025):

Legend:
Settings in all cases: 250 g/ha, evaluated after 13 days, five-point scale
[1] = system: Echinochloa crus-galli (ECHCG); test: Pre-emergence herbicidal glasshouse test; assay type: in vivo
[2] = system: Amaranthus retoflexus (AMARE); test: Post-emergence herbicidal glasshouse test; assay type: in vivo
[3] = system: Ipomoea hederacea (IPOHE); test: Post-emergence herbicidal glasshouse test; assay type: in vivo
AMAPA [4] = test: Post-emergence herbicidal glasshouse test; assay type: in vivo, Amaranthus tuberculatus
Setaria faberi (SETFA) [5] = test: Pre-emergence herbicidal glasshouse test; assay type: in vivo
AMAPA [6] = test: Pre-emergence herbicidal glasshouse test; assay type: in vivo, Amaranthus tuberculatus
[7] = system: Ipomoea hederacea (IPOHE); test: Pre-emergence herbicidal glasshouse test; assay type: in vivo
Setaria faberi (SETFA) [8] = test: Post-emergence herbicidal glasshouse test; assay type: in vivo
[9] = system: Amaranthus retoflexus (AMARE); test: Pre-emergence herbicidal glasshouse test; assay type: in vivo
[10] = system: Echinochloa crus-galli (ECHCG); test: Post-emergence herbicidal glasshouse test; assay type: in vivo

Row | SMILES | percentage damage caused to the plant, ECHCG [1] | percentage damage caused to the plant, AMARE [2] | percentage damage caused to the plant, IPOHE [3] | percentage damage caused to the plant, AMAPA (AMAPA [4]) | percentage damage caused to the plant, SETFA (Setaria faberi (SETFA) [5]) | percentage damage caused to the plant, AMAPA (AMAPA [6]) | percentage damage caused to the plant, IPOHE [7] | percentage damage caused to the plant, SETFA (Setaria faberi (SETFA) [8]) | percentage damage caused to the plant, AMARE [9] | percentage damage caused to the plant, ECHCG [10]
1 | N#Cc1cnc(Oc2cccc3nc(C(F)(F)F)ncc23)nc1 [Compound 1.003] | 1 (1=0-20%) | 1 (1=0-20%) | 1 (1=0-20%) | 1 (1=0-20%) | 1 (1=0-20%) | 1 (1=0-20%) | 1 (1=0-20%) | 1 (1=0-20%) | 1 (1=0-20%) | 1 (1=0-20%)
2 | Cc1cnc(Oc2cccc3nc(C(F)(F)F)ncc23)nc1 [Compound 1.004] | 5 (5=81-100%) | 3 (3=41-60%) | 4 (4=61-80%) | 4 (4=61-80%) | 4 (4=61-80%) | 4 (4=61-80%) | 4 (4=61-80%) | 4 (4=61-80%) | 5 (5=81-100%) | 3 (3=41-60%)
3 | FC(F)(F)c1ncc2c(Oc3ncc(Br)cn3)cccc2n1 [Compound 1.005] | 3 (3=41-60%) | 4 (4=61-80%) | 4 (4=61-80%) | 5 (5=81-100%) | 4 (4=61-80%) | 5 (5=81-100%) | 3 (3=41-60%) | 4 (4=61-80%) | 5 (5=81-100%) | 4 (4=61-80%)
4 | Fc1cc(Cl)cnc1Oc1cccc2nc(C(F)(F)F)ncc12 [Compound 1.006] | 1 (1=0-20%) | 2 (2=21-40%) | 2 (2=21-40%) | 1 (1=0-20%) | 1 (1=0-20%) | 1 (1=0-20%) | 1 (1=0-20%) | 1 (1=0-20%) | 1 (1=0-20%) | 1 (1=0-20%)
5 | FC(F)(F)c1ncc2c(Oc3ncccn3)cccc2n1 [Compound 1.008] | 1 (1=0-20%) | 3 (3=41-60%) | 3 (3=41-60%) | 3 (3=41-60%) | 4 (4=61-80%) | 4 (4=61-80%) | 3 (3=41-60%) | 1 (1=0-20%) | 4 (4=61-80%) | 1 (1=0-20%)
6 | FC(F)Oc1cnc(Oc2cccc3nc(C(F)(F)F)ncc23)nc1 [Compound 1.009] | 1 (1=0-20%) | 1 (1=0-20%) | 1 (1=0-20%) | 1 (1=0-20%) | 1 (1=0-20%) | 2 (2=21-40%) | 1 (1=0-20%) | 1 (1=0-20%) | 1 (1=0-20%) | 1 (1=0-20%)
7 | COc1ncc2c(Oc3ncc(Cl)cn3)cccc2n1 [Compound 1.016] | 3 (3=41-60%) | 4 (4=61-80%) | 2 (2=21-40%) | 5 (5=81-100%) | 3 (3=41-60%) | 5 (5=81-100%) | 4 (4=61-80%) | 1 (1=0-20%) | 5 (5=81-100%) | 1 (1=0-20%)
